# Columns and labels:
# Experiment in all cases: relative viability (nuclei count vs DMSO), 5 days (fraction); higher = more cells survive
# IDH-C35 + Pictilisib = compound: Cc1ccccc1C(C(=O)NC1CCCCC1)N(C(=O)Cn1ccnc1C)c1cccc(F)c1 [IDH-C35] + CS(=O)(=O)N1CCN(Cc2cc3nc(-c4cccc5[nH]ncc45)nc(N4CCOCC4)c3s2)CC1 [Pictilisib] (partner 1 µM)
# In short: (§1)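 Lung cancer cell lines were pin-tool dosed in 1536-well plates on the day after seeding, with either a lone drug or a fixed anchor-drug dose plus five library-drug doses (not always all listed) in √10 steps. Nuclei were counted on 4× images after 5 days. Relative viability is the ratio of treated-well to vehicle-well nuclei counts, with each value a median of duplicate plates.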
# IDH-C35 + Vorinostat = compound: Cc1ccccc1C(C(=O)NC1CCCCC1)N(C(=O)Cn1ccnc1C)c1cccc(F)c1 [IDH-C35] + O=C(CCCCCCC(=O)Nc1ccccc1)NO [Vorinostat] (partner 1 µM)
# In short: as §1
# IDH-C35 + Trametinib = compound: Cc1ccccc1C(C(=O)NC1CCCCC1)N(C(=O)Cn1ccnc1C)c1cccc(F)c1 [IDH-C35] + CC(=O)Nc1cccc(-n2c(=O)n(C3CC3)c(=O)c3c(Nc4ccc(I)cc4F)n(C)c(=O)c(C)c32)c1 [Trametinib] (partner 0.02 µM)
# In short: as §1
# [1] = compound: CC1=C(C(=NN1)C)CC2=C(C3=C(S2)N(C(=O)N(C3=O)C)CC(C)C)C(=O)N4C[C@@H](CO4)O + N=C(N)NC(=N)NCCc1ccccc1 [Phenformin] (partner 250 µM)
# In short: as §1
Cell Line,relative viability (IDH-C35 + Pictilisib; first compound 0.08 µM),relative viability (IDH-C35 + Pictilisib; first compound 0.253 µM),relative viability (IDH-C35 + Pictilisib; first compound 0.8 µM),relative viability (IDH-C35 + Pictilisib; first compound 8 µM),relative viability (IDH-C35 + Vorinostat; first compound 0.08 µM),relative viability (IDH-C35 + Vorinostat; first compound 0.253 µM),relative viability (IDH-C35 + Vorinostat; first compound 0.8 µM),relative viability (IDH-C35 + Vorinostat; first compound 8 µM),relative viability (IDH-C35 + Trametinib; first compound 0.08 µM),relative viability (IDH-C35 + Trametinib; first compound 0.253 µM),relative viability (IDH-C35 + Trametinib; first compound 0.8 µM),relative viability (IDH-C35 + Trametinib; first compound 8 µM),relative viability ([1]; first compound 0.0025 µM),relative viability ([1]; first compound 0.007906 µM),relative viability ([1]; first compound 0.025 µM),relative viability ([1]; first compound 0.07906 µM),relative viability ([1]; first compound 0.25 µM),relative viability (IDH-C35 + Pictilisib; first compound 2.53 µM),relative viability (IDH-C35 + Vorinostat; first compound 2.53 µM),relative viability (IDH-C35 + Trametinib; first compound 2.53 µM)
NCI-H650,0.926,0.863,0.847,0.851,0.413,0.434,0.515,0.505,1.03,0.935,0.861,0.914,0.499,0.431,0.4,0.458,0.472,–,–,–
NCI-H661,0.346,0.446,0.404,0.427,0.753,0.816,0.778,0.721,0.592,0.575,0.548,0.561,0.286,0.304,0.27,0.22,0.277,0.534,0.756,0.557
NCI-H727,0.528,0.522,0.54,0.43,1.2,1.08,1.02,1.16,0.376,0.357,0.34,0.372,0.424,0.504,0.486,0.489,0.372,0.441,1.17,0.393
NCI-H838,0.414,0.506,0.453,0.423,0.706,0.675,0.718,0.72,0.579,0.505,0.508,0.503,0.567,0.594,0.433,0.453,0.489,0.508,0.763,0.507
NCI-H1355,0.446,0.442,0.395,0.398,0.665,0.691,0.601,0.691,0.453,0.424,0.398,0.423,0.493,0.473,0.429,0.481,0.453,0.269,0.646,0.392
NCI-H1395,0.601,0.555,0.681,0.697,0.773,0.694,0.707,0.766,1.12,1.05,1.05,0.919,0.336,0.316,0.298,0.314,0.312,0.603,0.927,0.903
NCI-H1437,0.416,0.494,0.476,0.368,0.931,0.851,0.869,0.858,0.514,0.522,0.534,0.489,0.318,0.313,0.301,0.297,0.306,0.439,0.843,0.51
NCI-H1650,0.607,0.576,0.557,0.511,0.685,0.491,0.569,0.84,0.548,0.599,0.614,0.504,0.536,0.473,0.457,0.506,0.46,0.4,0.588,0.644
